Read-outs that look alike come from different tables or passages of the source.
Target: T1, HDM2 (Homo sapiens, UniProt Q00987)
T1 construct: Thioredoxin (N); made in house; host or cells: E. coli strain BL21(DE3)Rosetta
Assay: HDM2 FRET assay (inhibition of binding of FITC labeled p53-pocket peptide to HDM2)
Method in brief: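 Signal is read as the 520/495 nm emission ratio and converted to percent inhibition; nonlinear sigmoidal regression yields IC50. The assay mixes HDM2 (0.5 nM), FITC-p53 peptide (3 nM) and Tb anti-His antibody (0.25 nM) at 0.1% DMSO.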

[1] = 0.5 nM HDM2 (residues 17 to 125), 3nM peptide, two hour incubation at room temperature, read-out: FRET IC50

T1 sequence (Q00987 17-125): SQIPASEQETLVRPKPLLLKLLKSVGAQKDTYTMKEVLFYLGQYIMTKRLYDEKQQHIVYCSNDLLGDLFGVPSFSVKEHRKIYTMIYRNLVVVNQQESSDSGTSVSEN

**Q.** How did the IC50 [1] turn out when `C[C@@H](Nc1nc(C(=O)O)nc2nc(-c3nccs3)n(C[C@H]3CC[C@H](C)CC3)c12)C1CCC1` [Example 15.11, 6-(((R)-1-cyclobutylethyl)amino)-7-((trans-4-methylcyclohexyl)methyl)-8-(thiazol-2-yl)-7H-purine-2-carboxylic acid] was run?
**A.** The IC50 was 2.45 nM.

**Q.** `CC(C)c1ccnc(-c2nc3nc(C(=O)O)nc(N[C@H](C)C(F)(F)F)c3n2C[C@H]2CC[C@H](C)CC2)c1` [Example 15.22, 7-[(trans-4-methylcyclohexyl)methyl]-8-[4-(1-methylethyl)pyridin-2-yl]-6-{[(1R)-2,2,2-trifluoro-1-methylethyl]amino}-7H-purine-2-carboxylic acid] was tested. Which IC50 [1] did it give?
**A.** Its IC50 is 17.9 nM.

**Q.** `C[C@H]1CC[C@H](Cn2c(N3CCOC[C@H]3c3ccccc3)nc3nc(-c4noc(=O)[nH]4)nc(-c4ccnc(Cl)c4)c32)CC1` [Example 16.110, 3-{6-(2-chloropyridin-4-yl)-7-[(trans-4-methylcyclohexyl)methyl]-8-[(3R)-3-phenylmorpholin-4-yl]-7H-purin-2-yl}-1,2,4-oxadiazol-5(4H)-one] was tested. Which IC50 [1] did it give?
**A.** The IC50 was 1.14 nM.

**Q.** `C[C@@H](Nc1nc(C(=O)O)nc2nc(N3CCCCC3c3ccc(F)cc3)n(C[C@H]3CC[C@H](C)CC3)c12)C1CCC1` (stereo partly drawn) [Example 11.18, 6-{[(1R)-1-cyclobutylethyl]amino}-8-[2-(4-fluorophenyl)piperidin-1-yl]-7-[(trans-4-methylcyclohexyl)methyl]-7H-purine-2-carboxylic acid] was tested. Which IC50 (Table 11, read-out: FRET IC50) did it give?
**A.** The IC50 was 4.42 nM.

**Q.** `Cc1cccc(-c2nc3nc(C(=O)O)nc(N(C)C(C)C(C)C)c3n2Cc2ccc(C(F)(F)F)cc2)c1` (centres unmarked) [Example 6.81, 6-[(1,2-dimethylpropyl)(methyl)amino]-8-(3-methylphenyl)-7-[4-(trifluoromethyl)benzyl]-7H-purine-2-carboxylic acid] was tested. Which inhibition at 1 µM (read-out: inh. at 1000 nM (FRET)) did it give?
**A.** The inhibition at 1 µM was 46%.

**Q.** Which IC50 [1] does the source give for `CC(=O)c1nc(N[C@H](C)C2CCC2)c2c(n1)nc(N1CCOC[C@H]1c1ccccc1)n2C[C@H]1CC[C@H](C)CC1` [Example 12.23, 1-(6-{[(1R)-1-cyclobutylethyl]amino}-7-[(trans-4-methylcyclohexyl)methyl]-8-[(3R)-3-phenylmorpholin-4-yl]-7H-purin-2-yl)ethanone] here?
**A.** The IC50 was 53.3 nM.

**Q.** Which IC50 (Table 6, read-out: FRET IC50) does the source give for `Cc1cccc(-c2nc3nc(C(=O)O)nc(NC4CCCCC4C)c3n2Cc2ccc(Br)cc2)c1` (centres unmarked) [Example 6.10, 7-(4-bromobenzyl)-6-[(2-methylcyclohexyl)amino]-8-(3-methylphenyl)-7H-purine-2-carboxylic acid] here?
**A.** The IC50 was 1040 nM.

**Q.** Which IC50 [1] does the source give for `CC(C)c1ccnc(-c2nc3nc(C(=O)O)nc(-c4ccc(F)cc4)c3n2C[C@H]2CC[C@H](C)CC2)c1` [Example 16.13, 6-(4-fluorophenyl)-7-[(trans-4-methylcyclohexyl)methyl]-8-[4-(1-methylethyl)pyridin-2-yl]-7H-purine-2-carboxylic acid] here?
**A.** The IC50 was 401 nM.

**Q.** How did the IC50 (Table 11, read-out: FRET IC50) turn out when `C[C@@H](Nc1nc(-c2noc(=O)[nH]2)nc2nc(N3CCOCC(F)(F)C3)n(C[C@H]3CC[C@H](C)CC3)c12)C1CCC1` [Example 11.104, 3-(6-{[(1R)-1-cyclobutylethyl]amino}-8-(6,6-difluoro-1,4-oxazepan-4-yl)-7-[(trans-4-methylcyclohexyl)methyl]-7H-purin-2-yl)-1,2,4-oxadiazol-5(2H)-one] was run?
**A.** The IC50 was 9.24 nM.

**Q.** How did the IC50 [1] turn out when `C[C@](CO)(Nc1nc2nc(-c3noc(=O)[nH]3)nc(-c3cccc(Cl)c3)c2n1C[C@H]1CC[C@H](C)CC1)c1ccccc1` [Example 16.5, 3-(6-(3-chlorophenyl)-8-(((S)-1-hydroxy-2-phenylpropan-2-yl)amino)-7-(((trans)-4-methylcyclohexyl)methyl)-7H-purin-2-yl)-1,2,4-oxadiazol-5(4H)-one] was run?
**A.** Its IC50 is 1.59 nM.

**Q.** `C[C@@H](Nc1nc(-c2noc(=O)[nH]2)nc2nc(C(C)(O)c3cscn3)n(C[C@H]3CC[C@H](C)CC3)c12)C1CCC1` (stereo partly drawn) [Example 22.52, 3-(6-{[(1R)-1-cyclobutylethyl]amino}-8-[1-hydroxy-1-(1,3-thiazol-4-yl)ethyl]-7-[(trans-4-methylcyclohexyl)methyl] -7H-purin-2-yl)-1,2,4-oxadiazol-5(4H)-one] was tested. Which IC50 (Table 22, read-out: FRET IC50) did it give?
**A.** The IC50 was 1.85 nM.

**Q.** For `CC(c1cccc(F)c1)N(C)c1nc2nc(-c3noc(=O)[nH]3)nc(N[C@H](C)C3CCC3)c2n1Cc1ccc(C(F)(F)F)c(F)c1` (stereo partly drawn) [Example 9.73, 3-(6-{[(1R)-1-cyclobutylethyl]amino}-8-{[1-(3-fluorophenyl)ethyl](methyl)amino}-7-[3-fluoro-4-(trifluoromethyl)benzyl]-7H-purin-2-yl)-1,2,4-oxadiazol-5(4H)-one], which IC50 (Table 9, read-out: FRET IC50) is on record?
**A.** Its IC50 is 16.2 nM.

**Q.** How did the IC50 (Table 21, read-out: FRET IC50) turn out when `C[C@@H](Nc1nc(C(=O)O)nc2nc(C3CCCCC3)n(C[C@H]3CC[C@H](C)CC3)c12)C1CCC1` [Example 21.38, 6-{[(1R)-1-cyclobutylethyl]amino}-8-cyclohexyl-7-[(trans-4-methylcyclohexyl)methyl]-7H-purine-2-carboxylic acid] was run?
**A.** The IC50 was 2.68 nM.

**Q.** Which IC50 (FRET IC50) does the source give for `C[C@@H](Nc1nc(C(=O)O)nc2nc(N3C4CCCC3CC4)n(C[C@H]3CC[C@H](C)CC3)c12)C1CCC1` [Example 11.26, 8-(8-azabicyclo[3.2.1]oct-8-yl)-6-{[(1R)-1-cyclobutylethyl]amino}-7-[(trans-4-methylcyclohexyl)methyl]-7H-purine-2-carboxylic acid] here?
**A.** The IC50 was 3.57 nM.

**Q.** Which IC50 (Table 22, read-out: FRET IC50) does the source give for `C[C@@H](Nc1nc(-c2noc(=O)[nH]2)nc2nc(C(C)(O)c3cccnc3)n(C[C@H]3CC[C@H](C)CC3)c12)C1CCC1` (stereo partly drawn) [Example 22.40, 3-(6-{[(1R)-1-cyclobutylethyl]amino}-8-(1-hydroxy-1-pyridin-3-ylethyl)-7-[(trans-4-methylcyclohexyl)methyl] -7H-purin-2-yl)-1,2,4-oxadiazol-5(2H)-one] here?
**A.** The IC50 was 41.6 nM.

**Q.** For `Cc1csc(CN(C)c2nc3nc(-c4noc(=O)[nH]4)nc(N[C@H](C)C4CCC4)c3n2C[C@H]2CC[C@H](C)CC2)n1` [Example 11.76, 3-(6-{[(1R)-1-cyclobutylethyl]amino}-7-[(trans-4-methylcyclohexyl)methyl]-8-{methyl[(4-methyl-1,3-thiazol-2-yl)methyl]amino}-7H-purin-2-yl)-1,2,4-oxadiazol-5(2H)-one], which IC50 (Table 11, read-out: FRET IC50) is on record?
**A.** The IC50 was 8.19 nM.

**Q.** For `C[C@@H](Nc1nc(C(=O)O)nc2nc(NC(=O)C3CCCCC3)n(Cc3ccc(C(F)(F)F)cc3)c12)C1CCC1` [Example 9.43, 6-{[(1R)-1-cyclobutylethyl]amino}-8-[(cyclohexylcarbonyl)amino]-7-[4-(trifluoromethyl)benzyl]-7H-purine-2-carboxylic acid], which IC50 (Table 9, read-out: FRET IC50) is on record?
**A.** Its IC50 is 343 nM.

**Q.** `CC(C)c1cc(-c2nc3nc(-c4noc(=O)[nH]4)nc(N[C@H](C)C4CCC4)c3n2C[C@H]2CC[C@H](C)CC2)[nH]c(=O)c1` [Example 15.25, 6-[6-{[(1R)-1-cyclobutylethyl]amino}-7-[(trans-4-methylcyclohexyl)methyl]-2-(5-oxo-2,5-dihydro-1,2,4-oxadiazol-3-yl)-7H-purin-8-yl]-4-(1-methylethyl)pyridin-2(1H)-one] was tested. Which IC50 [1] did it give?
**A.** Its IC50 is 6.74 nM.

**Q.** How did the IC50 (Table 6, read-out: FRET IC50) turn out when `Cc1cccc(-c2nc3nc(C(=O)O)nc(N[C@H](C)c4ccc(Cl)cc4)c3n2Cc2ccc(C(F)(F)F)cc2)c1` [Example 6.44, 6-{[(1R)-1-(4-chlorophenyl)ethyl]amino}-8-(3-methylphenyl)-7-[4-(trifluoromethyl)benzyl]-7H-purine-2-carboxylic acid] was run?
**A.** The IC50 was 372 nM.

**Q.** Which IC50 (Table 17.2, read-out: FRET IC50) does the source give for `C[C@@H]1CN[C@@H](C)CN1c1nc2nc(-c3noc(=O)[nH]3)nc(N[C@H](C)C3CCC3)c2n1C[C@H]1CC[C@H](C)CC1` [Example 17.21, 3-(6-{[(1R)-1-cyclobutylethyl]amino}-8-[(2R,5S)-2,5-dimethylpiperazin-1-yl]-7-[(trans-4-methylcyclohexyl)methyl]-7H-purin-2-yl)-1,2,4-oxadiazol-5(4H)-one] here?
**A.** Its IC50 is 20.1 nM.

**Q.** Which IC50 (Table 9, read-out: FRET IC50) does the source give for `C[C@@H](Nc1nc(C(=O)O)nc2nc(N3C[C@H]4C[C@@H]3CO4)n(Cc3ccc(C(F)(F)F)cc3)c12)C1CCC1` [Example 9.27, 6-{[(1R)-1-cyclobutylethyl]amino}-8-[(1R,4R)-2-oxa-5-azabicyclo [2.2.1]hept-5-yl]-7-[4-(trifluoromethyl)benzyl]-7H-purine-2-carboxylic acid] here?
**A.** The IC50 was 23.7 nM.

**Q.** Which IC50 (Table 25, read-out: FRET IC50) does the source give for `C[C@H]1CC[C@H](Cn2c(N3CCOC[C@H]3c3ccccc3)nc3nc(-c4noc(=O)[nH]4)nc(Oc4ccc(Cl)cn4)c32)CC1` [Example 25.2, 3-{6-[(5-chloropyridin-2-yl)oxy]-7-[(trans-4-methylcyclohexyl)methyl]-8-[(3R)-3-phenylmorpholin-4-yl]-7H-purin-2-yl}-1,2,4-oxadiazol-5(4H)-one] here?
**A.** Its IC50 is 15.4 nM.

**Q.** Which IC50 (Table 11, read-out: FRET IC50) does the source give for `C[C@@H](Nc1nc(C(=O)O)nc2nc(N3CCCC[C@H]3c3ccccc3)n(C[C@H]3CC[C@H](C)CC3)c12)C1CCC1` [Example 11.14, 6-{[(1R)-1-cyclobutylethyl]amino}-7-[(trans-4-methylcyclohexyl)methyl]-8-[(2S)-2-phenylpiperidin-1-yl]-7H-purine-2-carboxylic acid] here?
**A.** Its IC50 is 0.381 nM.

**Q.** How did the IC50 (Table 9, read-out: FRET IC50) turn out when `C[C@@H](Nc1nc(C(=O)O)nc2nc(NCc3ccccc3)n(Cc3ccc(C(F)(F)F)cc3)c12)C1CCC1` [Example 9.13, 8-(benzylamino)-6-{[(1R)-1-cyclobutylethyl]amino}-7-[4-(trifluoromethyl)benzyl]-7H-purine-2-carboxylic acid] was run?
**A.** The IC50 was 3.07 nM.

**Q.** Which IC50 (Table 9, read-out: FRET IC50) does the source give for `C[C@@H](Nc1nc(C(=O)O)nc2nc(N3CC(C)(C)OC(C)(C)C3)n(Cc3ccc(C(F)(F)F)cc3)c12)C1CCC1` [Example 9.19, 6-{[(1R)-1-cyclobutylethyl]amino}-8-(2,2,6,6-tetramethylmorpholin-4-yl)-7-[4-(trifluoromethyl)benzyl]-7H-purine-2-carboxylic acid] here?
**A.** Its IC50 is 12.4 nM.

**Q.** For `CC(C)COC(C)c1nc2nc(C(=O)O)nc(N[C@H](C)C3CCC3)c2n1Cc1ccc(C(F)(F)F)cc1` (stereo partly drawn) [Example 10.5, 6-(((R)-1-cyclobutylethyl)amino)-8-(1-isobutoxyethyl)-7-(4-(trifluoromethyl)benzyl)-7H-purine-2-carboxylic acid], which IC50 (Table 10, read-out: FRET IC50) is on record?
**A.** The IC50 was 39.4 nM.

Source: patent EP2951180B1, “2,6,7,8 SUBSTITUTED PURINES AS HDM2 INHIBITORS” (Merck Sharp & Dohme Corp., priority 2013, dated 2014)
